Consider 28 molecules from patent US9546157B2, “Asymmetric piperidinyl-substituted ureas as medicines” (Helsinn Healthcare SA, priority 2014, dated 2017).

Some results are limits rather than exact numbers.

In test [1] the target is T1, GHSR1a (Homo sapiens, UniProt Q92847).
T1 construct: expressed in transfected cells; host or cells: HEK293
The test is described as follows: Calcium FLIPR assay, GHSR-1a antagonism (reduction of ghrelin response). In kind it is cell-based. As to conditions: HEK293/GHSR1a cells, ghrelin 10 nM. The essentials: (§1)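 HEK293 cells expressing GHSR1a, seeded 24 hr earlier and loaded with calcium dye for 30-60 min at room temperature or 37° C, were read by FLIPR fluorescence. Agonism: compound added at t=20 sec, calcium followed 2 minutes. Antagonism: compound plus ghrelin (10 nM) at t=20 sec; potency from reduction of ghrelin response.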

In test [2] the target is T1, GHSR1a. The test can be described thus: Calcium FLIPR assay, GHSR-1a agonism. Details: Emax: unit not given here. In kind it is cell-based. As to conditions: HEK293/GHSR1a cells. The essentials: as §1

T1 sequence (Q92847 whole entry): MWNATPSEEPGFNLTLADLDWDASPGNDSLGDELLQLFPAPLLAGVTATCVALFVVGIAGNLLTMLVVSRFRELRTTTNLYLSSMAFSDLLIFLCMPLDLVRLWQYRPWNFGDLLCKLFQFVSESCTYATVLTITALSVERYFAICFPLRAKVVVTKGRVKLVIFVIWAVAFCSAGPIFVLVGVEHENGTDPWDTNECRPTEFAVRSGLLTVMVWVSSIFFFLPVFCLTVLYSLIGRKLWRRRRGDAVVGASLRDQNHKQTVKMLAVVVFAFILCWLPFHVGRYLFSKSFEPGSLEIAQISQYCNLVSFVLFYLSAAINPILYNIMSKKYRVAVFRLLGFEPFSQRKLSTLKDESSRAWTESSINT

As for `CCON(C(=O)NC(C)c1ccc(-c2cnccn2)c(Cl)c1Cl)C1CCN(C)CC1` (stereo not drawn) [Compound H0750, 3-(1-(2,3-dichloro-4-(pyrazin-2-yl)phenyl)ethyl)-1-ethoxy-1-(1-methylpiperidin-4-yl)urea], at GHSR1a [1], the half-inhibitory concentration (IC50) (usually the point on the concentration scale where inhibition reaches its midpoint) is 0.177 µM. On GHSR1a [2], the concentration giving a half-maximal response (EC50) (in general, the concentration needed to bring the measured effect to its halfway point) was above 30 µM.

With `CCON(C(=O)NC(CC1CC1)c1ccc(-c2cnccn2)c(Cl)c1Cl)C1CCN(C)CC1` (stereo not drawn) [Compound H0752, 3-(2-cyclopropyl-1-(2,3-dichloro-4-(pyrazin-2-yl)phenyl)ethyl)-1-ethoxy-1-(1-methylpiperidin-4-yl)urea], the 50% inhibitory concentration (IC50) on GHSR1a [1] is 0.1 µM. Besides, the concentration for a half-maximal effect (EC50) at GHSR1a [2] was above 30 µM.

Regarding `CC(NC(=O)N(C)C1CCN(C)CC1)c1ccc(C#Cc2cncnc2)c(Cl)c1Cl` (stereo not drawn) [Compound H0753, 3-(1-(2,3-dichloro-4-(pyrimidin-5-ylethynyl)phenyl)ethyl)-1-methyl-1-(1-methylpiperidin-4-yl)urea], the IC50 on GHSR1a [1] was found to be 0.06 µM. Also, the EC50 at GHSR1a [2] was above 30 µM.

In the case of `CC(NC(=O)N(C)C1CCN(C)CC1)c1ccc(C#CCO)c(Cl)c1Cl` (stereo not drawn) [Compound H0755, 3-(1-(2,3-dichloro-4-(3-hydroxyprop-1-yn-1-yl)phenyl)ethyl)-1-methyl-1-(1-methylpiperidin-4-yl)urea], the IC50 on GHSR1a [1] turned out to be 0.012 µM. In addition, at GHSR1a [2], the concentration giving a half-maximal response (EC50) was 0.01 µM and the Emax came to 2196.

Consider `CC(NC(=O)N(O)C1CCN(C)CC1)c1ccc(-c2cnccn2)c(Cl)c1Cl` (stereo not drawn) [Compound H0756, 3-(1-(2,3-dichloro-4-(pyrazin-2-yl)phenyl)ethyl)-1-hydroxy-1-(1-methylpiperidin-4-yl)urea], for which, at GHSR1a [1], the IC50 came out at 0.013 µM. In addition, at GHSR1a [2], the half-maximal effective concentration (EC50) was 0.013 µM and the Emax is 1729.

Regarding `CCOC(C#Cc1ccc(C(C)NC(=O)N(C)C2CCN(C)CC2)c(Cl)c1Cl)OCC` (stereo not drawn) [Compound H0757, 3-(1-(2,3-dichloro-4-(3,3-diethoxyprop-1-yn-1-yl)phenyl)ethyl)-1-methyl-1-(1-methylpiperidin-4-yl)urea], the half-maximal inhibitory concentration (IC50) on GHSR1a [1] amounted to 0.159 µM. In addition, at GHSR1a [2], the EC50 was 0.654 µM and the Emax was 2704.

In the case of `CC(NC(=O)N(C)C1CCN(C)CC1)c1ccc(-c2cnc(C(N)=O)cn2)c(Cl)c1Cl` (stereo not drawn) [Compound H0760], the 50% inhibitory concentration (IC50) on GHSR1a [1] came to 6.2 µM. Further, the 50% effective concentration (EC50) at GHSR1a [2] is above 30 µM.

For the molecule `CC(NC(=O)N(C)C1CCN(C)CC1)c1ccc(C#Cc2c[nH]cn2)c(Cl)c1Cl` (stereo not drawn) [Compound H0763, 3-(1-(4-((1H-imidazol-4-yl)ethynyl)-2,3-dichlorophenyl)ethyl)-1-methyl-1-(1-methylpiperidin-4-yl)urea], the IC50 at GHSR1a [1] was determined as 0.835 µM. The concentration for a half-maximal effect (EC50) at GHSR1a [2] is above 30 µM.

As to `CC(NC(=O)N(C)C1CCN(C)CC1)c1ccc(-c2cncc(C3CC3)c2)c(Cl)c1Cl` (stereo not drawn) [Compound H0765, 3-(1-(2,3-dichloro-4-(5-cyclopropylpyridin-3-yl)phenyl)ethyl)-1-methyl-1-(1-methylpiperidin-4-yl)urea], the IC50 at GHSR1a [1] amounted to 0.061 µM. Besides, at GHSR1a [2], the EC50 came to 0.137 µM and the Emax was 2810.

`CC(NC(=O)N(C)C1CCN(C)CC1)c1ccc(-c2cncc([N+](=O)[O-])c2)c(Cl)c1Cl` (stereo not drawn) [Compound H0766, 3-(1-(2,3-dichloro-4-(5-nitropyridin-3-yl)phenyl)ethyl)-1-methyl-1-(1-methylpiperidin-4-yl)urea]: on GHSR1a [1], the IC50 was found to be 0.171 µM. Moreover, the EC50 at GHSR1a [2] was above 30 µM.

Turning to `CC(NC(=O)N(C)C1CCN(C)CC1)c1ccc(-c2ccncn2)c(Cl)c1Cl` (stereo not drawn) [Compound H0768, 3-(1-(2,3-dichloro-4-(pyrimidin-4-yl)phenyl)ethyl)-1-methyl-1-(1-methylpiperidin-4-yl)urea], the IC50 at GHSR1a [1] is 0.279 µM. Besides, the 50% effective concentration (EC50) at GHSR1a [2] was above 30 µM.

Turning to `CC(NC(=O)N(C)C1CCN(C)CC1)c1ccc(-c2cnc(CO)cn2)c(Cl)c1Cl` (stereo not drawn) [Compound H0770, 3-(1-(2,3-dichloro-4-(5-(hydroxymethyl)pyrazin-2-yl)phenyl)ethyl)-1-methyl-1-(1-methylpiperidin-4-yl)urea], the concentration for half-maximal inhibition (IC50) on GHSR1a [1] stood at 0.7 µM. In addition, on GHSR1a [2], the EC50 was found to be 0.294 µM and the Emax amounted to 1783.

On to `CC(NC(=O)N(C)C1CCN(C)CC1)c1ccc(-c2cnc(C(=O)N(C)C)cn2)c(Cl)c1Cl` (stereo not drawn) [Compound H0771, 5-(2,3-dichloro-4-(1-(3-methyl-3-(1-methylpiperidin-4-yl)ureido)ethyl)phenyl)-N,N-dimethylpyrazine-2-carboxamide], for which the half-maximal inhibitory concentration (IC50) on GHSR1a [1] was found to be 0.009 µM. Moreover, at GHSR1a [2], the EC50 worked out at 0.009 µM and the Emax came to 4662.

Take `CC(NC(=O)N(C)C1CCN(C)CC1)c1ccc(NC(=O)c2cccs2)c(Cl)c1Cl` (stereo not drawn) [Compound H0772, N-(2,3-dichloro-4-(1-(3-methyl-3-(1-methylpiperidin-4-yl)ureido)ethyl)phenyl)thiophene-2-carboxamide]: the IC50 at GHSR1a [1] is 0.003 µM. Further, on GHSR1a [2], the EC50 stood at 0.007 µM and the Emax is 3569.

Take `CC(NC(=O)N(C)C1CCN(C)CC1)c1ccc(C(=O)Nc2cccs2)c(Cl)c1Cl` (stereo not drawn) [Compound H0773, 2,3-dichloro-4-(1-(3-methyl-3-(1-methylpiperidin-4-yl)ureido)ethyl)-N-(thiophen-2-yl)benzamide]: the half-maximal inhibitory concentration (IC50) on GHSR1a [1] was 0.608 µM. Besides, at GHSR1a [2], the 50% effective concentration (EC50) was above 30 µM.

Take `CC(NC(=O)N(C)C1CCN(C)CC1)c1ccc(-c2sccc2C(N)=O)c(Cl)c1Cl` (stereo not drawn) [Compound H0774, 2-(2,3-dichloro-4-(1-(3-methyl-3-(1-methylpiperidin-4-yl)ureido)ethyl)phenyl)thiophene-3-carboxamide]: the IC50 on GHSR1a [1] came to 3.4 µM. Besides, on GHSR1a [2], the EC50 is above 30 µM.

As for `CC(NC(=O)N(C)C1CCN(C)CC1)c1ccc(C#Cc2ccc(CO)s2)c(Cl)c1Cl` (stereo not drawn) [Compound H0775, 3-(1-(2,3-dichloro-4-((5-(hydroxymethyl)thiophen-2-yl)ethynyl)phenyl)ethyl)-1-methyl-1-(1-methylpiperidin-4-yl)urea], at GHSR1a [1], the IC50 amounted to 0.074 µM. For the same molecule, the concentration giving a half-maximal response (EC50) at GHSR1a [2] was above 5 µM.

For the molecule `CC(NC(=O)N(C)C1CCN(C)CC1)c1ccc(C#Cc2ccc(C(N)=O)s2)c(Cl)c1Cl` (stereo not drawn) [Compound H0776, 5-((2,3-dichloro-4-(1-(3-methyl-3-(1-methylpiperidin-4-yl)ureido)ethyl)phenyl)ethynyl)thiophene-2-carboxamide], the IC50 on GHSR1a [1] came to 0.12 µM. Further, the EC50 at GHSR1a [2] is above 4 µM.

Take `CC(NC(=O)N(C)C1CCN(C)CC1)c1ccc(Nc2cccs2)c(Cl)c1Cl` (stereo not drawn) [Compound H0777, 3-(1-(2,3-dichloro-4-(thiophen-2-ylamino)phenyl)ethyl)-1-methyl-1-(1-methylpiperidin-4-yl)urea]: on GHSR1a [1], the IC50 came out at 0.715 µM. On GHSR1a [2], the 50% effective concentration (EC50) was 0.6 µM and the Emax was found to be 2288.

For the molecule `CC(NC(=O)N(C)C1CCN(C)CC1)c1ccc(-c2cncc(N)n2)c(Cl)c1Cl` (stereo not drawn) [Compound H0780, 3-(1-(4-(6-aminopyrazin-2-yl)-2,3-dichlorophenyl)ethyl)-1-methyl-1-(1-methylpiperidin-4-yl)urea], on GHSR1a [1], the IC50 came out at 0.063 µM. The concentration giving a half-maximal response (EC50) at GHSR1a [2] was above 30 µM.

In the case of `CC(NC(=O)N(C)C1CCN(C)CC1)c1ccc(-c2ccnnc2)c(Cl)c1Cl` (stereo not drawn) [Compound H0783, 3-(1-(2,3-dichloro-4-(pyridazin-4-yl)phenyl)ethyl)-1-methyl-1-(1-methylpiperidin-4-yl)urea], the 50% inhibitory concentration (IC50) on GHSR1a [1] was 0.681 µM. In addition, at GHSR1a [2], the EC50 came to 0.03 µM.

Turning to `CC(NC(=O)N(C)C1CCN(C)CC1)c1ccc(NC(=O)Nc2cccs2)c(Cl)c1Cl` (stereo not drawn) [Compound H0784, 3-(1-(2,3-dichloro-4-(4-(thiophen-2-yl)ureido)phenyl)ethyl)-1-methyl-1-(1-methylpiperidin-4-yl)urea], the 50% inhibitory concentration (IC50) at GHSR1a [1] is 0.529 µM. On GHSR1a [2], the concentration giving a half-maximal response (EC50) was above 30 µM.

For `CC(NC(=O)N(C)C1CCN(C)CC1)c1ccc(C#CCc2cccs2)c(Cl)c1Cl` (stereo not drawn) [Compound H0785, 3-(1-(2,3-dichloro-4-(3-(thiophen-2-yl)prop-1-yn-1-yl)phenyl)ethyl)-1-methyl-1-(1-methylpiperidin-4-yl)urea], at GHSR1a [1], the IC50 came to 0.033 µM. Further, on GHSR1a [2], the concentration giving a half-maximal response (EC50) was 0.09 µM and the Emax was determined as 2869.

Regarding `CC(NC(=O)N(C)C1CCN(C)CC1)c1ccc(-c2cncc(CCl)n2)c(Cl)c1Cl` (stereo not drawn) [Compound H0786, 3-(1-(2,3-dichloro-4-(6-(chloromethyl)pyrazin-2-yl)phenyl)ethyl)-1-methyl-1-(1-methylpiperidin-4-yl)urea], at GHSR1a [1], the concentration for half-maximal inhibition (IC50) was determined as 0.855 µM. Also, at GHSR1a [2], the 50% effective concentration (EC50) stood at 0.242 µM and the Emax is 980.

Consider `CC(NC(=O)N(C)C1CCN(C)CC1)c1ccc2c(NC3CC3)noc2c1` (stereo not drawn) [Compound H0787, 3-(1-(3-(cyclopropylamino)benzo[d]isoxazol-6-yl)ethyl)-1-methyl-1-(1-methylpiperidin-4-yl)urea], for which, on GHSR1a [1], the 50% inhibitory concentration (IC50) was 12 µM. Further, at GHSR1a [2], the EC50 amounted to 3 µM.

As to `CC(NC(=O)N(C)C1CCN(C)CC1)c1ccc(-c2cncc(C#N)n2)c(Cl)c1Cl` (stereo not drawn) [Compound H0788, 3-(1-(2,3-dichloro-4-(6-cyanopyrazin-2-yl)phenyl)ethyl)-1-methyl-1-(1-methylpiperidin-4-yl)urea], the IC50 at GHSR1a [1] amounted to 0.088 µM. Also, at GHSR1a [2], the EC50 was determined as 0.02 µM and the Emax is listed as 1230.

Turning to `COC(=O)c1cncc(-c2ccc(C(C)NC(=O)N(C)C3CCN(C)CC3)c(Cl)c2Cl)n1` (stereo not drawn) [Compound H0789, methyl 6-(2,3-dichloro-4-(1-(3-methyl-3-(1-methylpiperidin-4-yl)ureido)ethyl)phenyl)pyrazine-2-carboxylate], the 50% inhibitory concentration (IC50) at GHSR1a [1] is 0.284 µM. At GHSR1a [2], the half-maximal effective concentration (EC50) amounted to 0.026 µM and the Emax is 1137.

Consider `CC(NC(=O)N(C)C1CCN(C)CC1)c1ccc(C#N)c2ccccc12` (stereo not drawn) [Compound H0790, 3-(1-(4-cyanonaphthalen-1-yl)ethyl)-1-methyl-1-(1-methylpiperidin-4-yl)urea], for which the half-maximal inhibitory concentration (IC50) at GHSR1a [1] was 0.035 µM. Moreover, at GHSR1a [2], the concentration giving a half-maximal response (EC50) stood at 0.032 µM and the Emax stood at 2810.
